In patent US20060167056A1, “Polymorphs of {5-[3-(4,6-Difluoro-1H-benzoimidazol-2-yl)-1H-indazol-5-yl)-4-methyl-pyridin-3-ylmethyl}-ethyl-amine” (AGOURON PHARMACEUTICALS, INC., priority 2004, published 2006):
Entries after “also recorded” stand apart in the source; their conditions may differ.

Assays:
Type in all cases: physicochemical
[1] = Stability study at 40° C. at 75% relative humidity (X-ray powder diffraction and DSC, initial vs 6 weeks)
Excerpt: (§1) The present invention provides several polymorphic crystalline forms of Compound 1. Each crystalline form of the compound can be characterized by one or more of the following: X-ray powder diffraction pattern (i.e., X-ray diffraction peaks at various diffraction angles (2θ)), melting point onset (and onset of dehydration for hydrated forms) as illustrated by endotherms of a differential scanning calorimetry (DSC) thermogram, Raman spectra, thermal gravimetric analysis (TGA), solid state ^13C and ^19F nuclear magnetic resonance (SSNMR) spectrum, aqueous solubility, light stability under International Conference on Harmonization (ICH) high intensity light conditions, and physical and chemical storage stability.
(§2) Polymorph Form A is a meta-stable solvate form of Compound 1. Form A is chemically stable at 40° C. at 75% relative humidty for at least 6 weeks. […] The 6 week DSC thermogram, FIG. 2G, indicates an endotherm onset at 257° C. at a scan rate of 10° C./min.
(§3) Polymorph Form B is physically and chemically stable at 40° C. at 75% relative humidity for at least six weeks.
FIG. 2A is an X-ray powder diffractogram of polymorph Form B of Compound 1. Form B was further characterized by Raman spectra, ^13C solid state NMR, ^19F solid state NMR, DSC profiling and TGA analysis.

[2] = DSC profiling, meta-stability of the polymorphic form; details: DSC thermogram
Excerpt: Different polymorphic forms of Compound 1 were also distinguished using differential scanning calorimetry (DSC). DSC measures the difference in heat energy between a solid sample and an appropriate reference with an increase in temperature. DSC thermograms are characterized by endotherms (indicating energy uptake) and also by exotherms (indicating energy release), typically as the sample is heated. The DSC thermographs were obtained using a TA Instrument DSC Q-1000 instrument at a scan rate of 10° C./min over a temperature range of 25-300° C. Samples were weighed into aluminum crucibles that were sealed and punctured with a single hole. The extrapolated onset of melting temperature and, where applicable, the onset of dehydration/desolvation temperature, were also calculated. […] For any given example, the observed endotherms may also differ from instrument to instrument; however, it will generally be within the ranges defined herein provided the instruments are calibrated similarly.
as §2
FIG. 3A is an X-ray powder diffractogram of polymorph Form C of Compound 1. […]

[3] = Aqueous solubility
Excerpt: as §1, §3

SMILES	chemically stable, duration [1]	polymorph conversion, initial DSC thermogram vs 6 week DSC thermogram ([1]; 6 weeks, DSC scan rate 10° C./min)	physical stability, initial X-Ray powder diffraction data vs 6 week stability X-ray data ([1]; 6 weeks, XRPD)	stability class of the polymorphic form [2]	solubility ([3]; aqueous, aqueous buffer, pH=4, read-out: initial aqueous solubility) [mg/mL]	behaviour of the aqueous solution after time ([3]; pH=4, after time)
CCNCc1cncc(-c2ccc3[nH]nc(-c4nc5c(F)cc(F)cc5[nH]4)c3c2)c1C [Form A, {5-[3-(4,6-Difluoro-1H-benzoimidazol-2-yl)-1H-indazol-5-yl]-4-methyl-pyridin-3-ylmethyl}-ethyl-amine]	at least 6 weeks	small conversion of Form A to Form B; also recorded: a small amount of Form A had been converted to Form B	appears to be physically stable	meta-stable		
CCNCc1cncc(-c2ccc3[nH]nc(-c4nc5c(F)cc(F)cc5[nH]4)c3c2)c1C [Form C, {5-[3-(4,6-Difluoro-1H-benzoimidazol-2-yl)-1H-indazol-5-yl]-4-methyl-pyridin-3-ylmethyl}-ethyl-amine]				meta-stable		
CCNCc1cncc(-c2ccc3[nH]nc(-c4nc5c(F)cc(F)cc5[nH]4)c3c2)c1C [Form B, {5-[3-(4,6-Difluoro-1H-benzoimidazol-2-yl)-1H-indazol-5-yl]-4-methyl-pyridin-3-ylmethyl}-ethyl-amine]	at least six				> 20	the solution has been seen to gel
